Measurements as given in patent EP1579851A2, “Rapid release encapsulated bioactive agents for inducing or potentiating an immune response and methods of use thereof” (CORIXA CORPORATION, priority 1997, dated 1999).

Test system: P815 cells
Experiment: In vivo CTL induction by P815-1 formulations (anti-P1A response), 51Cr release cytotoxicity assay
Parameters: species or system DBA/2 mice
Details: 30 µg peptide or equivalent, two weeks after a single immunization; restimulated with P815-2 pulsed splenocytes; Fig. 4a
Description: C57BL/6 mice were immunized subcutaneously with 15-30µg of soluble Ova or Ova encapsulated in microspheres (Ova/PLG). In the P1A system, DBA/2 mice were similarly immunized with P815-1 peptide alone or P815-1/PLG. PLG is defined herein as PLG1, which represents the polymeric composition of the single component system, or PLG2a-XX, which represents the polymeric composition of the blend component system. Antigens were suspended in 200 iL of PBS and injected on both flanks of the animal. As controls, mice were immunized with Ova admixed with alum as adjuvant. Fourteen to 21 days after the immunization, splenocytes were prepared as single cell suspensions and ~50'10^6 cells from each mouse were incubated with 2.5'10^6 irradiated (200,000 rad) EG7.Ova cells. […] After five days of culture, CTL activities were measured in a ^51Cr release cytotoxicity assay as described below.
To conduct a CTL assay, target cells were incubated with ^51Cr at 100 ìCi/10^6 cells at 37°C for 60 min. […] After 4 hours of incubation at 37°C, supernatant was collected from test wells using Skatron filter strips and counted on a Packard Cobra II a counter. Specific lysis was calculated as: % specific lysis =(Experimental release - Spontaneous release)/(Maximum release - Spontaneous release)X 100 [formula] […]

KKKRYSLEEILPYLGWLVFAWTTSKKK [soluble P815-1 peptide, 28 amino acid peptide, residues 28-49 of the P1A antigen with 3 lysine residues added to both termini]
CTL activity of splenocytes against P815 cells: Minimal CTL priming
